{
  "source": "ChEMBL document CHEMBL1141849",
  "about": "“A beta-carboline alkaloid from the soft coral lignopsis spongiosum” (1999)",
  "tested_on": "Escherichia coli",
  "assay": "Antibacterial activity against Escherichia coli ATCC 25922 at 50 ug/disk by agar diffusion assay",
  "format": "functional",
  "conditions": "read-out: IZ",
  "data": [
    {"smiles": "C[n+]1cc2[nH]c3ccccc3c2cc1C(=O)[O-]", "values": [
      {"measurement": "zone of inhibition at 50 µg/disc", "result": 11, "unit": "mm"}
    ]}
  ]
}
